The text below walks through data of patent publication US20260284050A1, “ACTIVATORS OF THE COLD STRESS RESPONSE AND USES THEREOF” (priority 2023, published 2026).

Read-outs that look alike come from different tables or passages of the source. Where a SMILES comes first, the peptide text is derived from it. The star is where a group is joined. Cbz = O=C(OCc1ccccc1)* Bounds are passed on as bounds.

One data set relates to SP1+MCRE-MHI. As to the kind of experiment: cells. The settings on record: HEK293FT; for fold induction at 20 µM: Homo sapiens. As to the method:
Briefly, Lipofectamine 3000 (Thermofisher Scientific, L3000015) was used to transfect the SP1+MCRE indicator into the HEK293FT cell line. 24 h after transfection, 30000 cells were plated into each well of a 96 well black well plate. 48 h after transfection the cells were exposed to FDA Approved Drug Screening Library (L1300-Z298012) via the High Throughput Screening Services (ChemCore) at Johns Hopkins University. Each drug was exposed in 20 μM concentration. Total well GFP was read with the ClarioStarPlus Plate Reader (settings: gain 1500, 470-15 excitation and emission 515-20 at focal height 2.6) 16, 28, and 40 h after exposure of the library. Increase in fluorescence was calculated with dividing GFP reads from positive control at each time point with GFP reads of each well exposed to drug at the same timepoint for wells in the same lane. Compounds were validated in same concentration (20 μM). For validation cells were exposed to the drug for 24 hours, and evaluated by FACS as described in the section Transfection of indicators into cell lines.
To explore this in an unbiased manner, a systematic library drug screen (1953 FDA-approved inhibitors) was performed using HEK293FT cells transfected with the SP1+MCRE-MHI. […] Cells transfected with said MHI were exposed to the drug library (20 μM concentration) and fluorescence was measured after 16-, 28- and 40-hours of drug exposure. Drugs that could increase the indicator's fluorescence at least >3.75 times at one of the time points were further investigated.

Another data set concerns HEK293 cells. As to the kind of experiment: Cell cycle phase evaluation of HEK293 cells. Type of data set: cell-based, human. The settings on record: for cell cycle arrest: HEK293 cells exposed to compound. As to the method: To exclude the possibility of cell cycle arrest or increased apoptosis, cell cycle phase of HEK293 cells exposed to Pozitinib and Entacapone was evaluated. […] Similarly, there were no signs of activation of the MHIs after exposure to an apoptotic agent.

Another data set relates to SP1-MHI. As to the kind of experiment: FACS validation in HEK293 cells with Cas9 and SP1-MHI. In kind it is cell-based, human. Conditions: 20 μM. As to the method:
HEK293 cell lines were transfected when 70-90% confluency was reached. Either Lipofectamine™ 2000 or 3000 (Thermofisher Scientific, #11668027, #L3000015) was used according to the manufacture's protocol. The fluorescence of the indicators was measured via FACS up to 48 hours after transfection. FACS data were analysed with the FlowJo Software, where gates were created on living cells, single cells, GFP positive cells and the fluorescence for that population was measured.
Each drug was exposed in 20 μM concentration. […] Compounds were validated in same concentration (20 μM).
HEK293 cells with Cas9 and SP1-MHI were individually exposed to each compound (20 μM) for 16 hours at either 32° C. or 37° C. followed by FACS. […] (Entacapone, Poziotinib), indicating activation of response with drug without hypothermic stimulus.

The subject of another data set is SP1, RBM3 and CIRBP. As to the kind of experiment: Western blot of SP1, RBM3 and CIRBP after compound exposure. In kind it is cell-based, human. Conditions: 24 h exposure at either 32° C. or 37° C. How it is done: (§1) Cells were washed with PBS and then lysed for 30 min on ice in RIPA buffer (50 mM Tris HCl ph8, 150 mM NaCl, 1% NP-40, 1% Sodium deoxycholate, 0.1% SDS, 2 mM EDTA, phosphatase inhibitor (Cell signaling, Cat. #5870S), and Halt™ Protease Inhibitor Cocktail (Thermo Fisher, Cat. #78437). The lysates were centrifuged at 16,000×g for 20 minutes at 4° C. and the supernatants were collected. The supernatants were diluted with 4× loading buffer (Li-cor) and heated at 95° C. for 5 mins. The protein concentration was measured using Pierce™ BCA Assay Kit (Thermo Fisher). 20-30 μg protein samples were loaded into gels and separated by SDS-PAGE. They were transferred to polyvinylidene fluoride (PVDF) membranes and blocked in 5% bovine serum albumin in Tris-buffered saline with Tween 20 for 1 hour. Primary antibodies (rabbit anti-CIRBP, 1:2000, Cat. #10209-2-AP, Proteintech; rabbit anti-RBM3, 1:1000, CAT. #14363-1-AP, Proteintech; rabbit anti-SP1 1:1000, CAT. #21962-1-AP, Proteintech; mouse anti-Lamin 1, 1:5000, CAT. #66095-1-Ig, Proteintech; rabbit anti-SMYD5, 1:1000, in-house; rabbit anti-Phospho-SP1, 1:1000, CAT. #PA5-104771, Proteintech) were applied to respective membranes after washing, and incubated at 4° C. overnight. […] After washing, the protein bands were visualized on the Odyssey® CLx Infrared Imaging System and quantified by Image J software.
A general note: A western blot detects proteins with antibodies after separation by electrophoresis.

The test system of another data set is SMYD5. As to the kind of experiment: SMYD5 levels at 32° C. with proteasome inhibition. Type of data set: cell-based, human. The settings on record: 6 hour exposure. How it is done:
as §1, with “software. […]” for “software.”

In the next data set the test system is RBM3. As to the kind of experiment: RT-qPCR of endogenous RBM3 relative to GAPDH. Type of data set: cell-based, human. Conditions: 16 h exposure at 37° C. How it is done: (§2) Total RNA from cells incubated at 32° C. or 37° C. was isolated, using Direct-zol™ RNA Microprep (Zymo Research, R2062), according to the manufacturer's instructions. The concentration of RNA was measured by NanoDrop™ One Microvolume UV-Vis Spectrophotometer (Thermo Scientificv™) followed by cDNA synthesis with High-Capacity cDNA Reverse Transcription Kit (Applied Biosystems™, 4368814) on MiniAmp™ Thermal Cycler (Applied Biosystems™). qPCR was performed using Luna® Universal qPCR Master Mix on CFX384™ Real-Time PCR Detection System (Bio-Rad). Each biological replicate of the RT-qPCR assay in this study was carried out in technical triplicates. Any technical replicate that deviated from other replicates by 0.4 cycle threshold (Ct) was removed from calculations of average Ct values. The primers used in this study are as follows: […]
(§3) To evaluate effects on the endogenous loci (CIRBP, RBM3 and SP1) real time quantitative polymerase chain reaction (RT-qPCR) was carried out after 16 h of either 32° C. or 37° C.—with or without the exposure to the compound during that time.
For orientation: Real-time PCR tracks product formation cycle by cycle.

Another data set relates to CIRBP. As to the kind of experiment: RT-qPCR of endogenous CIRBP relative to GAPDH. Type of data set: cell-based, human. The settings on record: 16 h exposure at 37° C. As to the method:
as §2, §3

The test system of a further data set is SP1. As to the kind of experiment: RT-qPCR of endogenous SP1 relative to GAPDH. Type of data set: cell-based, human. The settings on record: 16 h exposure at 37° C. As to the method:
as §2, §3

[1] abbreviates: 40 h, read-out: increase in fluorescence of the SP1+MCRE-MHI.

As for `CN(C)C/C=C/C(=O)Nc1cc2c(Nc3ccc(F)c(Cl)c3)ncnc2cc1O[C@H]1CCOC1` [Afatinib], in the data set with SP1+MCRE-MHI (setting [1]), the fold induction at 20 µM was over 3.75.
Regarding `C[C@@H](NCCCc1cccc(C(F)(F)F)c1)c1cccc2ccccc12` [Cincalcet], the “increase in fluorescence of the SP1+MCRE-MHI” value in the data set on SP1+MCRE-MHI (20 μM, at one of the time points (16, 28, 40 h of drug exposure)) is over 3.75 times.
As for `Cc1nc(Nc2ncc(C(=O)Nc3c(C)cccc3Cl)s2)cc(N2CCN(CCO)CC2)n1` [Dasatinib], the fold induction at 20 µM in the data set with SP1+MCRE-MHI (setting [1]) is over 3.75.
Regarding `CCN(CC)C(=O)/C(C#N)=C/c1cc(O)c(O)c([N+](=O)[O-])c1` [Entacapone], the “percentage of total cells in the S phase of cell cycle” value in the data set with HEK293 cells (16 hours exposure at both 32° C. and 37° C.) was “slight increase”. In addition, the cell cycle arrest entry with HEK293 cells is given as “Any signs of cell cycle arrest”. Moreover, the fold induction at 20 µM in the data set with SP1+MCRE-MHI (setting [1]) is over 3.75. The “mean fluorescence of SP1-MHI by FACS” value in the data set on SP1-MHI (16 hours at 32° C.) is listed as “significantly (P<0.01) potentiate fluorescence levels”; in the data set on SP1-MHI (16 hours at 37° C.), “significantly (P<0.001, P<0.0001) increased fluorescence”. The “Western blot of SP1, RBM3 and CIRBP with versus without compound” value in the data set with SP1, RBM3 and CIRBP was “significant difference (P<0.05”.
Turning to `CC[C@H]1OC(=O)[C@H](C)[C@@H](O[C@H]2C[C@@](C)(OC)[C@@H](O)[C@H](C)O2)[C@H](C)[C@@H](O[C@@H]2O[C@H](C)C[C@H](N(C)C)[C@H]2O)[C@](C)(O)C[C@@H](C)C(=O)[C@H](C)[C@@H](O)[C@]1(C)O` [Erythromycin], the fold induction at 20 µM with SP1+MCRE-MHI (setting [1]) was over 3.75.
Still for that read-out and setting: in the case of `CS(=O)(=O)CCNCc1ccc(-c2ccc3ncnc(Nc4ccc(OCc5cccc(F)c5)c(Cl)c4)c3c2)o1` [Lapatinib] it was over 3.75.
In the case of `CC(C)C[C@@H](C=O)NC(=O)[C@H](CC(C)C)NC(=O)[C@H](CC(C)C)NC(=O)OCc1ccccc1` [MG132] (Cbz-Leu-Leu-Leu-aldehyde), in the data set with SMYD5, the SMYD5 levels entry is “increases levels of SMYD5 at 32 °C to levels seen at 37 °C”.
In the case of `C=CCN1CC[C@]23c4c5ccc(O)c4O[C@H]2C(=O)CC[C@@]3(O)[C@H]1C5` [Naloxone], in the data set with SP1+MCRE-MHI (setting [1]), the fold induction at 20 µM is over 3.75.
For the compound `Cc1[nH]c(/C=C2\C(=O)Nc3ccccc32)c(C)c1CCC(=O)O` [Orantinib], in the data set with SP1+MCRE-MHI (setting [1]), the fold induction at 20 µM is over 3.75.
`C=CC(=O)N1CCC(Oc2cc3c(Nc4ccc(Cl)c(Cl)c4F)ncnc3cc2OC)CC1` [Poziotinib]: the cell cycle arrest entry in the data set on HEK293 cells is “Any signs of cell cycle arrest”. Also, the “RBM3 mRNA expression” value in the data set with RBM3 was “significantly (P<0.05) increased”. In addition, the “CIRBP mRNA expression” value with CIRBP was “trend towards increase”. In addition, the fold induction at 20 µM in the data set with SP1+MCRE-MHI (setting [1]) was over 3.75. For the same compound, the “mean fluorescence of SP1-MHI by FACS” value in the data set with SP1-MHI (16 hours at 37° C.) is given as “significantly (P<0.001, P<0.0001) increased fluorescence”. Moreover, in the data set on SP1, the “SP1 mRNA expression” value is “trend towards increase”.
Consider `C=CC(=O)Nc1cccc(Nc2nc(Nc3ccc(N4CCN(C(C)=O)CC4)cc3OC)ncc2C(F)(F)F)c1` [Rociletinib], for which, in the data set with SP1+MCRE-MHI (setting [1]), the fold induction at 20 µM is over 3.75.
Take `CC/C(=C(\c1ccccc1)c1ccc(OCCN(C)C)cc1)c1ccccc1` [Tamoxifen]: the fold induction at 20 µM in the data set with SP1+MCRE-MHI (setting [1]) is over 3.75.
In the case of `Cc1ccc(C(=O)c2cc(O)c(O)c([N+](=O)[O-])c2)cc1` [Tolcapone], the fold induction at 20 µM with SP1+MCRE-MHI (16 h, read-out: relative increase of fluorescence of the SP1+MCRE-MHI compared to control) was determined as 1.8; with SP1+MCRE-MHI (28 h, read-out: relative increase of fluorescence of the SP1+MCRE-MHI compared to control), 1.7; with SP1+MCRE-MHI (40 h, read-out: relative increase of fluorescence of the SP1+MCRE-MHI compared to control), 1.9.
